Results reported in ChEMBL document CHEMBL1157539, “Thousands of chemical starting points for antimalarial lead identification” (Nature, 2010).

Test system: Plasmodium falciparum
Experiment: GSK_TCMDC: Inhibition of Plasmodium falciparum 3D7 in whole erythrocytes, using parasite LDH activity as an index of growth.
Format: functional, organism-based
Details: not given

| SMILES | XC50 [nM] |
| --- | --- |
| O=C(Nc1cc(C(F)(F)F)cc(C(F)(F)F)c1)NC1CCC(CN2CCC(c3c[nH]c4ccccc34)CC2)CC1 (stereo not given) | 461 |
| NC1=NC(c2ccccc2)(c2cccc(O)c2)C(=O)N1CCCc1ccccc1 (stereo not given) | 836 |

Same assay, conditions: Plasmodium falciparum, 3D7

| SMILES | XC50 [nM] |
| --- | --- |
| CCOC(=O)c1ccc(NC(=O)Nc2cccc(-c3ccc(-c4nc5cccc(C)c5[nH]4)s3)c2)cc1 | 144 |
| COc1ccc(Nc2cc(C)nc(Nc3ccc(NC(C)=O)cc3)n2)cc1 | 865 |
| COc1cc(C2=NN(S(=O)(=O)c3c(C)cc(C)cc3C)CCCC2)ccc1Cl | 775 |
| OC(CNCCCCCCNCC(O)c1ccc(Cl)c(Cl)c1)c1ccc(Cl)c(Cl)c1 (stereo not given) | 915 |
| O=C(Nc1cc(C(F)(F)F)cc(C(F)(F)F)c1)NC1CCC(CN2CCC(c3c[nH]c4ccccc34)CC2)CC1 (stereo not given) | 810 |
| CCCNC(=O)C1Cc2c([nH]c3cc(Br)ccc23)C2(CCN(CCc3ccccc3)CC2)N1 (stereo not given) | 972 |
| c1cc(-c2ccc(CNC3CCOCC3)cc2)cc(-c2nc3ccccc3[nH]2)c1 | 768 |
| CC(C)CNCc1ccc(-c2cccc(-c3nc4ccccc4[nH]3)c2)cc1 | 626 |
| Cc1sc2cc(Cl)cc(Cl)c2c1S(=O)(=O)Nc1ccc2nccc(N3CCNCC3)c2c1 | 124 |
| Cc1nc(Nc2cc(Cl)ccc2O)nc(Nc2cc(Cl)ccc2O)c1[N+](=O)[O-] | 29.4 |
| CN1CCC(N(Cc2ccc(-c3ccc(C(F)(F)F)cc3)cc2)C(=O)Cn2cc(Cc3cnn(C)c3)c(=O)nc2SCc2cccc(F)c2F)CC1 | 933 |
| Cc1ccc(C)c(Sc2ccc(NC(=O)CN3CCN(C(=O)c4ccco4)CC3)cc2)c1 | 716 |
| CC[C@H](C)CNC(=O)c1cncc(-c2cccc(CN3CCC(N4CCCC4)CC3)c2)c1 | 1170 |
| CNC(=O)C(C)N(c1ccc(Cl)cc1)c1nc(C(C)(C)C)cs1 (stereo not given) | 741 |
| CCCc1ccc(N2C(N)=NC(N)=NC2(C)C)cc1 | 28.4 |
| COc1ccc(-c2cccc(NC(=O)c3cccs3)c2)cc1CN1CCCN(C)CC1 | 698 |
| CCCCCCn1c(Sc2ccc(C#N)c([N+](=O)[O-])c2)nnc1-c1ccc(Cl)cc1 | 832 |
| c1cc(OCCN2CCCC2)ccc1CNC1CCN(CC2CCCCC2)CC1 | 845 |
| CC(Oc1cccc(Cl)c1)C(=O)N1CCc2ccccc21 (stereo not given) | 512 |
| CCCCOc1ccccc1C(=O)NCc1csc(-c2ccccc2)n1 | 556 |
| CN(C(=O)NCCc1ccccc1)C1CCN(CCCCCNC(=O)/C=C/c2ccc(Cl)c(Cl)c2)CC1 | 678 |
| O=C(Nc1ccc(OC2CCN(Cc3ccc(F)cc3)C2)c(Cl)c1)c1ccc(F)cc1 (stereo not given) | 490 |
| CC(C)(C)OC(=O)n1cc(C2CCN(CCCC34CCCc5cccc(c53)NC4=O)CC2)c2ccncc21 (stereo not given) | 876 |
| Cc1ccc(CNC(=N)NC(=O)c2nc(Cl)c(NCc3ccc(Cl)cc3)nc2N)c(C)c1 | 167 |
| Cc1cc2nc(-c3ccc(/C=C/C(=O)NC4CCCCC4)cc3)[nH]c2cc1C | 1010 |

| SMILES | XC50 [nM] |
| --- | --- |
| Cc1cc2c(/C=C/C(=O)NC3CCC(CCN4CCc5ccc(C#N)cc5CC4)CC3)cccc2[nH]1 (stereo not given) | 840 |
| CCCOc1ccc(CCCON2C(N)=NC(N)=NC2(C)C)cc1 | 3.2 |
| Cc1nc(-c2cccc(C(F)(F)F)c2)n2nc(Nc3ccc(OCCN4CCCC4)cc3)ncc12 | 751 |
| O=C(NC1CCC(CN2CCC(c3c[nH]c4ccccc34)CC2)CC1)c1cc2ccccc2o1 (stereo not given) | 971 |
| O=c1cc(NCCCNCc2ccc(C(F)(F)F)c(F)c2)[nH]c2ccccc12 | 1190 |
| CC(C)(CNC(=O)/C=C/c1ccc(C(F)(F)F)cc1)CNc1cc(=O)c2ccccc2[nH]1 | 912 |
| Cc1cccc2nc(-c3ccc(-c4cccc(CNCc5cccc(N)c5)c4)s3)[nH]c12 | 517 |
| O=C(Nc1cccc([N+](=O)[O-])c1)N(Cc1ccc(Cl)c(Cl)c1)C1CCNCC1 | 719 |
| CCc1c(C(=O)NC2CCC(N3CCC(c4ccccc4C)CC3)CC2)[nH]c2ccc(OC)cc12 (stereo not given) | 808 |
| CCC(=O)Nc1ccc(C(O)CN2CCC3(C=Cc4ccccc4O3)CC2)cc1 (stereo not given) | 1200 |
| Cc1ncccc1C(=O)Nc1cccc(-c2cccc(-c3nc4cc(C(F)(F)F)ccc4[nH]3)c2)c1 | 602 |
| CCc1ccc(OCCCON2C(=N)N=C(N)NC2(C)C)cc1 | 3.2 |
| COc1cccc(Nc2nc(Nc3cccc(C#N)c3)cc(C(F)(F)F)n2)c1 | 834 |
| CCN(CC)C(=O)c1cnc(-c2ccccc2)nc1Oc1cccc(Cl)c1 | 1160 |
| Cc1ccc(NC(=O)Nc2cccc(Cl)c2)cc1-c1ccc(C(=O)Nc2ccncc2)cc1 | 738 |
| Cc1ccc(-c2csc(C)n2)c(C)c1 | 991 |
| Cc1ccc(C(NC(=O)Cc2ccccc2)c2ccc3cccnc3c2O)cc1 (stereo not given) | 623 |
| O=C(NCCCCCN1CCC(c2c[nH]c3ccccc23)CC1)Nc1cccc(Cl)c1 | 1020 |
| CN1CCN(Cc2c(O)ccc3c(=O)c(Oc4ccc(C(C)(C)C)cc4)c(C(F)(F)F)oc23)CC1 | 812 |
| COc1ccc(OCC(=O)Nc2nc(-c3ccc(OC)cc3)c(C)s2)cc1 | 1950 |
| CC(C)Nc1nc(NCCc2c[nH]cn2)nc(NCc2ccc(Cl)c(Cl)c2)n1 | 962 |
| Cc1cccc2nc(-c3cccc(-c4cccc(NC(=O)Nc5ccc(Cl)cc5)c4)c3)[nH]c12 | 236 |
| Cc1nc(N)nc(N)c1-c1cc(Cl)c(N)c(Cl)c1 | 805 |
| COc1cc2c(cc1N1CC(C)NC(C)C1)N(C(=O)c1ccc(-c3ccc(-c4ncc[nH]4)cc3C)cc1)CC2 (stereo not given) | 717 |
| O=C(Nc1ccc(OC2CCN(Cc3ccsc3)C2)c(Cl)c1)c1ccco1 (stereo not given) | 602 |

| SMILES | XC50 [nM] |
| --- | --- |
| CS(=O)(=O)Nc1ccc(-c2cnc3[nH]cc(-c4ccc(C(=O)O)cc4)c3c2)cc1 | 800 |
| O=c1ccc2ccc(F)c3c2n1CC3CN1CCC(NCc2cccc(-c3ccccc3F)c2)CC1 (stereo not given) | 1100 |
| Cc1cc(O)c(-c2ccc(OCc3ccc(Cl)cc3)cc2)c(C)n1 | 732 |
| Cc1cc(NC(=O)Nc2ccc3nccc(N4CCN(C)CC4)c3c2)ccc1Br | 92.7 |
| CCC(CC)C(CC(=O)NC(C)(C)CCc1ccccc1OC)Nc1ccc(C#N)c2ccccc12 (stereo not given) | 796 |
| Cc1cc(NCCC(=O)Nc2ccccc2)nc(NCCc2ccccc2)n1 | 852 |
| CCCCc1cc(NCc2ccncc2)nc(Nc2ccccc2)n1 | 843 |
| OC(CNC12CC3CC(CC(C3)C1)C2)c1cccc(C(F)(F)F)c1 (stereo not given) | 301 |
| Cc1ccc(NC(=O)C2CCC2)cc1-c1ccc(C(=O)NCC2CC2)cc1 | 742 |
| CC(C)C1C(=O)N(S(C)(=O)=O)C2CCN(C(=O)c3ccc(CN4CCCCC4)c([N+](=O)[O-])c3)C12 (stereo not given) | 620 |
| O=C(Nc1cccc(-c2nn3ccccc3c2-c2ccnc(Nc3cccc(N4CCCC4=O)c3)n2)c1)c1cc(F)ccc1F | 212 |
| O=C(Nc1ccc(Cn2ncc(N3CCCNCC3)c(Cl)c2=O)cc1)Nc1cccc(C(F)(F)F)c1 | 640 |
| Oc1ccc(CCNCCCCNCCc2ccc(Cl)cc2)cc1O | 843 |
| O=C(N[C@@H](CC1CCCCC1)C(=O)NCCc1ccc(Cl)c(Cl)c1)c1ccc(O)c(-c2ccc(Cl)c(Cl)c2)c1 | 156 |
| Cc1cc(C(=O)Nc2ccc3c(c2)CCN3C2CCN(Cc3csc4ccccc34)C2)no1 (stereo not given) | 119 |
| Cc1cc(CNCCCCCNCc2cccc([N+](=O)[O-])c2)ccc1O | 784 |
| Cc1c[nH]c(CCNC(=O)c2cc(-c3ccc(Cl)cc3)cs2)n1 | 242 |
| CC(=O)Nc1ccc(CN2CCC(NC(=O)c3ccc(-c4cccc(OC(C)C)c4)s3)CC2)cc1 | 1460 |
| CC(C)C1=NC(=O)c2cc([N+](=O)[O-])ccc2CN1 | 149 |
| NC1=NC(c2ccccc2)(c2cccc(O)c2)C(=O)N1CCCc1ccccc1 (stereo not given) | 1230 |
| CC(C)NCc1cccc(-c2cccc(-c3nc4ccccc4[nH]3)c2)c1 | 799 |
| CN(CCCNC(=S)NC12CC3CC(CC(C3)C1)C2)CCCNc1ccnc2cc(Cl)ccc12 | 121 |
| O=C(Nc1ccnc(-c2cccnc2)n1)c1cc(C(F)(F)F)cc(C(F)(F)F)c1 | 823 |
| CN1CCC(Oc2ccc(CN3CC[C@H](NC(=O)c4ccc(Cl)c(F)c4)C3)c3ccccc23)C1 (stereo not given in full) | 738 |
| O=C1CCCC1Sc1nc2ccccc2c(=O)n1-c1ccc(Cl)c(Cl)c1 (stereo not given) | 726 |

| SMILES | XC50 [nM] |
| --- | --- |
| N#Cc1ccc(NC(=O)Nc2ccc(OC(F)(F)F)cc2)cc1 | 819 |
| Cc1ccccc1N1CCN(c2ccc(C(=O)NC(C)C)cn2)CC1 | 901 |
| CCCCc1ccc(NC(=O)Nc2ccc3c(c2)CCNCC3)cc1 | 585 |
| CN1CCN(CC(=O)Nc2cccc(-c3ccc(-c4nc5cc(F)ccc5[nH]4)s3)c2)CC1 | 679 |
| Oc1ccc(C=NNC(S)=Nc2cccc3ccccc23)c(O)c1 | 1040 |
| NC1CCN(Cc2ccc(-c3ccc(-c4nc5ccccc5[nH]4)s3)cc2)C1 (stereo not given) | 743 |
| Cc1cc(NC(=O)[C@H](CC(C)C)Nc2ccc(C#N)c3ccccc23)ccc1F | 777 |
| O=C(Oc1ccc(C2CNCCc3c2cc(OC(=O)c2ccc(O)cc2)c(OC(=O)c2ccc(O)cc2)c3Cl)cc1)c1ccc(O)cc1 (stereo not given) | 983 |
| Cc1cnc2cc3c(cc2c1N1CCN(C)CC1)NCC3 | 779 |
| C[C@H]1CN(Cc2cccc(-c3cc(CNC(=O)c4cccc(CN5CCN(C/C=C/c6ccccc6)CC5)c4)ccc3F)c2)CCN1 | 852 |
| CCN(CC)S(=O)(=O)c1ccc(C=CC(=O)Nc2cc(Cl)ccc2N2CCOCC2)cc1 | 920 |
| Oc1cc2c(cc1CN1CCN(Cc3ccc(Cl)s3)CC1)CCC2 | 616 |
| CC(COc1ccc2c(c1)OC(C)(C)CC2c1ccccc1)NCC(O)c1cccc(Cl)c1 (stereo not given) | 752 |
| c1ccc2c(c1)cc(CNCCCN1CCN(CCCNCc3cc4ccccc4c4ccccc34)CC1)c1ccccc12 | 204 |
| COCCN1CCC(N(CC2(O)CCN(c3ccc(C(F)(F)F)cc3)CC2)C(=O)Cn2c(SCc3cccc(F)c3F)cc(=O)c3ccccc32)CC1 | 807 |
| CNS(=O)(=O)CCNCc1ccc(-c2ccc3ncnc(Nc4ccc(OCc5ccccc5)cc4)c3c2)o1 | 729 |
| O=C(NCCCCCN1CCCN(C(=O)Nc2ccc(Cl)c(C(F)(F)F)c2)CC1)C1CC1c1ccc(Cl)c(Cl)c1 (stereo not given) | 852 |
| Cc1ccc(NC(=O)c2ccc3ncccc3c2)cc1OC1CCN(C(C)C)C1 (stereo not given) | 990 |
| Cc1nc(N/C=C/c2ccc(O)cc2)cc(N2CCCC2)n1 | 1070 |
| COc1ccc2nccc([C@@H](O)CN3CCC(NCc4ccc5c(c4)NC(=O)C(C)(C)O5)CC3)c2c1 | 402 |
| CCN1CCC(N(Cc2ccc(-c3ccc(C(F)(F)F)cc3)cc2)C(=O)CCCCn2c(CCc3cccc(F)c3F)nc(=O)c3ccccc32)CC1 | 989 |
| CC(=O)Nc1cccc(C(=O)Nc2nc3ccc(-c4cc(=O)[nH]c(Nc5ccccc5Cl)n4)cc3[nH]2)c1 | 689 |
| COc1ccc2nccc([C@@H](O)CN3CCC(NCC(O)Cc4ccccc4)CC3)c2c1 (stereo not given in full) | 671 |
